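Each compound was tested at five concentrations against cells in 96-well plates for 48 hours. Here, GI50 denotes the concentration required for 50% inhibition of growth.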 Calls of active or inactive are those of the source. Cut-off read from the data, not from the text of the source: active = GI50 up to about 1.1 µM and inactive = higher. Residues, ends and D or L forms follow the SMILES beside them. *: point of attachment. Boc = CC(C)(C)OC(=O)*
Experiments:
Test in all cases: growth of human tumour cells (NCI), 48 h
MDA-MB-435 = test system: MDA-MB-435
OVCAR-8 = test system: OVCAR-8
MOLT-4 = test system: MOLT-4
HT-29 = test system: HT-29
TK-10 = test system: TK-10
RXF 393 = test system: RXF 393
786-0 = test system: 786-0
A549 = test system: A549
LOX IMVI = test system: LOX IMVI
EKVX = test system: EKVX
K562 = test system: K562
SK-MEL-28 = test system: SK-MEL-28
RPMI-8226 = test system: RPMI-8226
NCI-H460 = test system: NCI-H460
DU-145 = test system: DU-145
COLO 205 = test system: COLO 205
HOP-62 = test system: HOP-62
HCC 2998 = test system: HCC 2998
OVCAR-3 = test system: OVCAR-3
NCI-H522 = test system: NCI-H522

Measured: GI50

C=CCC(C)C12CCNC(Cc3ccc(O)cc31)C2C (configuration not stated)
inactive: MDA-MB-435 > 100 µM | OVCAR-8 > 100 µM | MOLT-4 84.5 µM | HT-29 79.1 µM | TK-10 > 100 µM | RXF 393 > 100 µM | 786-0 > 100 µM | A549 > 100 µM | LOX IMVI > 100 µM | EKVX > 100 µM | K562 41.3 µM | SK-MEL-28 > 100 µM | RPMI-8226 > 100 µM | NCI-H460 89.9 µM | DU-145 > 100 µM | COLO 205 > 100 µM | HOP-62 > 100 µM | HCC 2998 51.1 µM

CC1(C)C2CCC(N)(C2)C1N (configuration not stated)
inactive: MDA-MB-435 > 100 µM | OVCAR-8 > 100 µM | MOLT-4 > 100 µM | TK-10 > 100 µM | RXF 393 > 100 µM | 786-0 > 100 µM | OVCAR-3 > 100 µM | A549 > 100 µM | LOX IMVI > 100 µM | EKVX > 100 µM | K562 > 100 µM | SK-MEL-28 > 100 µM | RPMI-8226 > 100 µM | NCI-H460 > 100 µM | DU-145 > 100 µM | COLO 205 > 100 µM | HOP-62 > 100 µM | HCC 2998 > 100 µM

COC(=O)/C=C/c1cnc2c(c1)oc(=O)n2C
inactive: MDA-MB-435 > 100 µM | OVCAR-8 > 100 µM | MOLT-4 > 100 µM | HT-29 > 100 µM | TK-10 > 100 µM | 786-0 > 100 µM | OVCAR-3 > 100 µM | A549 > 100 µM | LOX IMVI > 100 µM | EKVX > 100 µM | K562 > 100 µM | SK-MEL-28 > 100 µM | RPMI-8226 > 100 µM | NCI-H460 > 100 µM | DU-145 > 100 µM | COLO 205 > 100 µM | HOP-62 > 100 µM | HCC 2998 > 100 µM

O=c1cc(NCC2CCCCC2)[nH]c(=O)[nH]1
inactive: MDA-MB-435 > 100 µM | OVCAR-8 > 100 µM | TK-10 > 100 µM | RXF 393 > 100 µM | 786-0 > 100 µM | OVCAR-3 > 100 µM | A549 > 100 µM | LOX IMVI > 100 µM | EKVX > 100 µM | K562 > 100 µM | SK-MEL-28 > 100 µM | RPMI-8226 > 100 µM | NCI-H460 > 100 µM | DU-145 > 100 µM | COLO 205 > 100 µM | HOP-62 > 100 µM | HCC 2998 > 100 µM

c1ccc2c(c1)ccc1nc3ccccn3c12
inactive: MDA-MB-435 > 100 µM | OVCAR-8 > 100 µM | MOLT-4 > 100 µM | HT-29 > 100 µM | TK-10 > 100 µM | RXF 393 > 100 µM | 786-0 > 100 µM | OVCAR-3 > 100 µM | A549 > 100 µM | EKVX 68.5 µM | K562 > 100 µM | SK-MEL-28 > 100 µM | RPMI-8226 > 100 µM | NCI-H460 > 100 µM | DU-145 > 100 µM | COLO 205 > 100 µM | HOP-62 > 100 µM | HCC 2998 > 100 µM

COc1cc2c(cc1NC(=O)c1ccccc1)c1c(n2S(=O)(=O)c2ccccc2)CCN(S(=O)(=O)c2ccccc2)C1
inactive: MDA-MB-435 > 100 µM | OVCAR-8 > 100 µM | MOLT-4 > 100 µM | HT-29 > 100 µM | RXF 393 > 100 µM | 786-0 > 100 µM | OVCAR-3 > 100 µM | A549 > 100 µM | LOX IMVI > 100 µM | K562 > 100 µM | SK-MEL-28 > 100 µM | RPMI-8226 > 100 µM | NCI-H460 > 100 µM | DU-145 > 100 µM | COLO 205 > 100 µM | HOP-62 > 100 µM | HCC 2998 > 100 µM

CCOc1ccc(N/C(=C(/C(Cl)=C(/Cl)N2CCCCC2)[N+](=O)[O-])n2nnc3ccccc32)cc1
inactive: MDA-MB-435 8.49 µM | MOLT-4 5.27 µM | TK-10 32.8 µM | 786-0 18.7 µM | OVCAR-3 17.4 µM | NCI-H522 6.31 µM | A549 21.5 µM | EKVX 19.3 µM | K562 17.4 µM | SK-MEL-28 18.5 µM | RPMI-8226 14.7 µM | NCI-H460 22.2 µM | DU-145 19.2 µM | COLO 205 20.6 µM | HOP-62 21.4 µM | HCC 2998 21 µM

O=C(CN1C(=O)c2ccccc2C1=O)OCC1CCCN2CCCCC12 (configuration not stated)
inactive: MDA-MB-435 > 100 µM | OVCAR-8 > 100 µM | MOLT-4 > 100 µM | HT-29 > 100 µM | TK-10 > 100 µM | RXF 393 > 100 µM | 786-0 > 100 µM | A549 > 100 µM | LOX IMVI > 100 µM | EKVX > 100 µM | K562 > 100 µM | SK-MEL-28 > 100 µM | RPMI-8226 > 100 µM | NCI-H460 > 100 µM | DU-145 > 100 µM | COLO 205 99.5 µM | HCC 2998 > 100 µM

O=C(O)CN1CCNCCN(CC(=O)O)CCN(CC(=O)O)CCNCC1
inactive: MDA-MB-435 > 100 µM | OVCAR-8 96.2 µM | MOLT-4 83.6 µM | HT-29 26.7 µM | TK-10 > 100 µM | 786-0 93.3 µM | OVCAR-3 76 µM | NCI-H522 18.2 µM | A549 > 100 µM | LOX IMVI 91.2 µM | EKVX > 100 µM | K562 85.3 µM | SK-MEL-28 > 100 µM | RPMI-8226 > 100 µM | NCI-H460 68.7 µM | DU-145 > 100 µM | COLO 205 64.1 µM | HOP-62 > 100 µM

COc1ccc(C(=O)/C=C2\Nc3cccnc3N\C2=C/C(=O)c2ccc(OC)cc2)cc1
inactive: MDA-MB-435 20.3 µM | OVCAR-8 14.3 µM | MOLT-4 27.9 µM | HT-29 14.5 µM | TK-10 13.2 µM | 786-0 2.17 µM | OVCAR-3 14.8 µM | A549 15.6 µM | LOX IMVI 13.9 µM | EKVX 20.8 µM | K562 57.9 µM | SK-MEL-28 16.9 µM | RPMI-8226 42.2 µM | NCI-H460 9.18 µM | DU-145 19.9 µM | COLO 205 60.5 µM | HOP-62 4.94 µM | HCC 2998 23.9 µM

COC(=O)C(Cc1c[nH]c2ccccc12)NC(=O)C(Cc1c[nH]c2ccccc12)NC(=O)C(Cc1c[nH]c2ccccc12)NC(=O)C(Cc1c[nH]c2ccccc12)NC(=O)OC(C)(C)C (configuration not stated) (Boc-WWWW-OMe; configuration not given here)
inactive: MDA-MB-435 23.4 µM | OVCAR-8 26.9 µM | MOLT-4 3.85 µM | HT-29 22.9 µM | TK-10 34.7 µM | 786-0 5.14 µM | OVCAR-3 15.1 µM | NCI-H522 25.4 µM | A549 39.4 µM | LOX IMVI 12.7 µM | K562 4.8 µM | SK-MEL-28 18.2 µM | RPMI-8226 3.95 µM | NCI-H460 24.9 µM | DU-145 43.2 µM | HOP-62 25.6 µM | HCC 2998 20.5 µM

Source: ChEMBL document CHEMBL1201862, “PubChem BioAssay data set” (2004)
